This test concerns wheat variety 'OSLO'. Description: Chemical hybridizing agent assay for male sterility (male gametocidal activity), foliar spray, seed counts. Format: in vivo. The protocol: The compounds of structure 3 and analogs are applied at a rate of 50-1000 μg/plant to cause pollen sterility. The male gametocidal activity is determined on the wheat variety ‘OSLO’, a double-dwarf hard red spring wheat. The wheat seed is planted to a depth of 0.5 to 1 inch (1-2.5 cm) in a 6-inch long (15 cm) conetainer (a cone shaped container, one seed per conetainer). The conetainers are filled with Metromix 200 potting soil supplemented with a slow release fertilizer, Osmocote and Sierra combined at 93 g/cu ft soil for a NPK of 31-20-24. Micromax with micronutrients is added at 17 g/cu ft rate. Fertilizer supplier is Hummerts, Earth City, Mo. 63045. The RLC-4 conetainers are 1×6 inch (2.5×15 cm) with a capacity of 4 cu in. (Stuewe & Sons, Inc., Corvallis, Oreg., 97333-9461). These are loaded into racks of 100 that occupy a 1.0 ft by 1.0 ft area. After seeding, the racks are placed in growth chambers with 14/10 hour day/night cycle at 18° C. These chambers are equipped with metal halide lamps that deliver approximately 300 μE/m^2/sec. Humidity is maintained at 50%, and plants are watered as needed. Approximately six weeks after seeding, wheat plants are selected for chemical application at or just prior to flag-leaf emergence from the boot (Feekes Scale 7.5-8.0) (Large, 1954. Plant Pathology 3:128-129). Plants are placed in a rack containing cardboard dividers to prevent each from being cross contaminated by an adjacent spray. The following procedures are used to evaluate the activity of the compounds of the invention for inducing male sterility in cereals. The plant heights vary and as uniformity is required for chemical application, the top 0-10 cm are removed by excision, such that the plant height is flush with the top of the divider. Prior to application, a 50 mL solution of DMSO (dimethylsulfoxide) containing the chemical hybridizing agent is diluted with 150 mL of water containing 1% SILWET L-77 surfactant (Witco Corp., Greenwich, Conn. 06831-2559) plus 2% humectant (glycerin, supplied by VWR Scientific Products Co.). The formulated chemicals are applied foliarly as an atomized spray onto the plants. After application, the plants are moved into growth chambers and allowed to grow until the heads emerge from the boot. Prior to anther extrusion (approximately 10 to 14 days after treatment), the plants are placed back into dividers in order to isolate the seed heads and to prevent cross-pollination. The plants are moved to a greenhouse, which has similar environmental conditions as the growth chambers. Approximately one week later (3 weeks after treatment (WAT) and at anther extrusion), open head morphology ratings are initiated. Plants are rated four times over a period of eight days (Table 2). The chemical hybridizing agent Genesis® (a registered Trade Mark of the Monsanto Co) is used as the positive control and for comparative purposes as to the rate of application and the efficacy as determined by percent sterility. The negative control is treatment of the wheat plants with the compounds making up the formulation of surfactant and humectant without the chemical compositions being assayed as chemical hybridizing agents. The data in Table 2 is expressed as % Sterility=(1-(Ave. normalized seed counts of sample/Ave. normalized seed counts of controls))*100 with the treatments comprising foliar application and rate titration at Feekes stage 8, across five replicates. Approximately two weeks after open head ratings are completed (six WAT), seed counts are collected.

The mark [1] stands for this setting: Table 2, rate 50 μg/plant, foliar, Feekes 6.
The mark [2] stands for this setting: Table 2, rate 50 μg/plant, foliar, Feekes 8.
The mark [3] stands for this setting: Table 2, rate 125 μg/plant, foliar, Feekes 6.
Where [4] appears, read: Table 2, rate 125 μg/plant, foliar, Feekes 8.
Setting [5] is: Table 2, rate 250 μg/plant, foliar, Feekes 6.
[6] abbreviates: Table 2, rate 250 μg/plant, foliar, Feekes 8.
Where [7] appears, read: Table 2, rate 500 μg/plant, foliar, Feekes 6.
Where [8] appears, read: Table 2, rate 500 μg/plant, foliar, Feekes 8.
Setting [9] is: Table 2, rate 1000 μg/plant, foliar, Feekes 8.

As to `COP(=O)(OC)c1cnn(-c2ccc(Cl)cc2)c1O` [Compound 3a, Dimethyl [1-(4-chlorophenyl)-5-hydroxy-1H-pyrazol-4-yl]phosphonate], the “Sterility (%)” value turned out to be 27% under setting [1]; 39% under setting [2]; 0% under setting [3]; 34% under setting [4]; 0% under setting [5]; 79% under setting [6]. Besides, the “Sterility (%)” value was determined as 49% under setting [7] and 92% under setting [8].

As for `COP(=O)(OC)c1cnn(-c2ccc(F)cc2)c1O` [Compound 3b, Dimethyl [1-(4-fluorophenyl)-5-hydroxy-1H-pyrazol-4-yl]phosphonate], the “Sterility (%)” value by setting is: under setting [2], 23%; under setting [4], 30%; under setting [6], 90%; under setting [8], 91%; under setting [9], 98%.

Take `COP(=O)(OC)c1cnn(-c2ccccc2Cl)c1O` [Compound 3c, Dimethyl [1-(2-chlorophenyl)-5-hydroxy-1H-pyrazol-4-yl]phosphonate]: the “Sterility (%)” value is, setting by setting: under setting [2], 25%; under setting [4], 29%; under setting [6], 18%; under setting [8], 53%; under setting [9], 36%.

For the molecule `COP(=O)(OC)c1cnn(-c2ccc(Br)cc2)c1O` [Compound 3d, Dimethyl [1-(4-bromophenyl)-5-hydroxy-1H-pyrazol-4-yl]phosphonate], the “Sterility (%)” value is given as 0% under setting [2]; 0% under setting [4]; 17% under setting [6]; 15% under setting [8]; 54% under setting [9].

On to `COP(=O)(OC)c1cnn(C2CCCCC2)c1O` [Compound 3e, Dimethyl [1-cyclohexyl-5-hydroxy-1H-pyrazol-4-yl]phosphonate], for which the “Sterility (%)” value was 15% under setting [2]; 3% under setting [4]; 17% under setting [6]; 26% under setting [8]; 44% under setting [9].

As for `O=P(O)(O)C1=CNN(c2ccc(Cl)cc2)C1O` (centres unmarked) [Compound 3j, 2-(4-Chlorophenyl)-3-hydroxy-1H-pyrazol-4-yl phosphonic acid], the “Sterility (%)” value was 4% under setting [1]; 31% under setting [2]; 7% under setting [3]; 13% under setting [4]; 0% under setting [5]; 0% under setting [6]. The “Sterility (%)” value by setting is: under setting [7], 35%; under setting [8], 12%.

Turning to `COP(=O)([O-])c1cnn(-c2cc(C)cc(C)c2)c1O.[K+]` [Compound 3l, methyl potassium[2-(3,5-dimethylphenyl)-3-hydroxy-1H-pyrazol-4-yl]phosphonate], the “Sterility (%)” value is, setting by setting: under setting [1], 0%; under setting [2], 12%; under setting [3], 17%; under setting [4], 28%; under setting [5], 39%; under setting [6], 24%. In addition, the “Sterility (%)” value is, setting by setting: under setting [7], 54%; under setting [8], 39%.

In the case of `Cc1cc(C)cc(-n2ncc(P(=O)([O-])O)c2O)c1.[K+]` [Compound 3n, hydrogen potassium[2-(3,5-dimethylphenyl)-3-hydroxy-1H-pyrazol-4-yl]phosphonate], the “Sterility (%)” value under setting [1] came out at 7%; the “Sterility (%)” value under setting [2] was 15%; the “Sterility (%)” value under setting [3] is on record as 7%; the “Sterility (%)” value under setting [4] is given as 11%; the “Sterility (%)” value under setting [5] came out at 10%; the “Sterility (%)” value under setting [6] was found to be 4%. Further, the “Sterility (%)” value under setting [7] came out at 31% and the “Sterility (%)” value under setting [8] amounted to 20%.

As for `COP(=O)(OC)c1cnn(-c2ccc(Cl)cc2)c1OCc1ccc(Cl)cc1` [Compound 4a, Dimethyl{1-(4-Chlorophenyl)-5-[(4-chlorobenzyl)oxy]-1H-pyrazol-4-yl}phosphonate], the “Sterility (%)” value is, setting by setting: under setting [1], 0%; under setting [2], 48%; under setting [3], 0%; under setting [4], 80%; under setting [5], 9%; under setting [6], 93%. Besides, the “Sterility (%)” value worked out at 34% under setting [7] and 93% under setting [8].

`COP(=O)(OC)c1cnn(-c2ccc(Cl)cc2)c1OCc1ccccc1[N+](=O)[O-]` [Compound 4b, Dimethyl{1-(4-chlorophenyl)-5-[(2-nitrobenzyl)oxy]-1H-pyrazol-4-yl}phosphonate]: the “Sterility (%)” value reads like this: under setting [1], 0%; under setting [2], 16%; under setting [3], 0%; under setting [4], 0%; under setting [5], 0%; under setting [6], 57%. Further, the “Sterility (%)” value is, setting by setting: under setting [7], 0%; under setting [8], 94%.

For the molecule `CCn1cc(P(=O)(OC)OC)c(=O)n1-c1ccc(Cl)cc1` [Compound 5a, Dimethyl [2-(4-chlorophenyl)-2,3-dihydro-1-ethyl-3-oxo-pyrazol-4-yl]phosphonate], the “Sterility (%)” value reads like this: (Table 4, rate 50 μg/plant) 11%; (Table 4, rate 125 μg/plant) 26%; (Table 4, rate 250 μg/plant) 66%; (Table 4, rate 500 μg/plant) 29%; (Table 4, rate 1000 μg/plant) 10%.

With `COP(=O)(OC)c1cn(C2CCCCC2)n(-c2ccc(Cl)cc2)c1=O` [Compound 5b, Dimethyl[2-(4-chlorophenyl)-1-cyclohexyl-2,3-dihydro-3-oxo-pyrazol-4-yl]phosphonate], the “Sterility (%)” value is listed as 0% (Table 4, rate 50 μg/plant); 14% (Table 4, rate 125 μg/plant); 20% (Table 4, rate 250 μg/plant); 23% (Table 4, rate 500 μg/plant); 62% (Table 4, rate 1000 μg/plant).

With `CCn1cc(P(=O)(OC)OC)c(=O)n1-c1cc(C)cc(C)c1` [Compound 5c, Dimethyl[2-(3,5-dimethylphenyl)-2,3-dihydro-1-ethyl-3-oxo-pyrazol-4-yl]phosphonate], the “Sterility (%)” value runs as follows: (Table 4, rate 50 μg/plant) 8%; (Table 4, rate 125 μg/plant) 1%; (Table 4, rate 250 μg/plant) 16%; (Table 4, rate 500 μg/plant) 48%; (Table 4, rate 1000 μg/plant) 31%.

Regarding `CCCCn1cc(P(=O)(OC)OC)c(=O)n1-c1cc(C)cc(C)c1` [Compound 5d, Dimethyl[1-butyl-2-(3,5-dimethylphenyl)-2,3-dihydro-3-oxo-pyrazol-4-yl]phosphonate], the “Sterility (%)” value is reported as 29% (Table 4, rate 50 μg/plant); 0% (Table 4, rate 125 μg/plant); 28% (Table 4, rate 250 μg/plant); 24% (Table 4, rate 500 μg/plant); 41% (Table 4, rate 1000 μg/plant).

For the molecule `COP(=O)(OC)c1cn(-c2ccc(Br)cc2)nc1O` [Compound 8a, Dimethyl [1-(4-bromophenyl)-3-hydroxy-1H-pyrazol-4-yl]phosphonate], the “Sterility (%)” value runs as follows: (Table 3, rate 50 μg/plant) 12%; (Table 3, rate 125 μg/plant) 0%; (Table 3, rate 250 μg/plant) 44%; (Table 3, rate 500 μg/plant) 25%; (Table 3, rate 1000 μg/plant) 15%.

With `COP(=O)(OC)c1c(-c2ccccc2)nn(-c2ccc(Cl)cc2)c1O` [Compound 10a, Dimethyl [1-(4-chlorophenyl)-5-hydroxy-3-phenyl-1H-pyrazol-4-yl]phosphonate], the “Sterility (%)” value was found to be 1% under setting [2]; 0% under setting [4]; 27% under setting [6]; 18% under setting [8]; 45% under setting [9].
